According to patent publication US12606544B2, “JAK1 selective kinase inhibitor” (DIZAL (JIANGSU) PHARMACEUTICAL CO., LTD., priority 2019, dated 2026):
Like-named read-outs stand apart in the source and are kept apart here.

Assays:
JAK1 = molecular target: T1, JAK1 (Homo sapiens, UniProt P23458); test: Lance Ultra Kinase Assay, recombinant JAK1; format: biochemical; settings: 5 mM ATP
T1 construct: purchased Carna Biosciences
Experimental: (§1) Recombinant JAK1, JAK2, JAK3 and TYK2 purchased from Carna Biosciences. The inhibition potency of compounds against JAK1, JAK2, JAK3 and TYK2 was assessed using Lance Ultra Kinase Assay.
(§2) In brief, recombinant kinases were pre-incubated in the presence or absence of compound at room temperature for 15 minutes. The reaction was initiated by the addition of 5 mM ATP and substrate peptide which could be phosphorylated by kinases in the reaction. After 60 minutes incubation, the reaction was stopped by the addition of the detection reagent mix containing EDTA. The fluorescence was measured at 615 nm and 665 nm, respectively with excitation wavelength at 320 nm. The calculated signal ratio of 665 nm/615 nm is proportional to the kinase activity.

JAK2 = molecular target: T2, JAK2 (Homo sapiens, UniProt O60674); test: Lance Ultra Kinase Assay, recombinant JAK2; format: biochemical; settings: 5 mM ATP
T2 construct: purchased Carna Biosciences
Experimental: as §1, §2

JAK3 = molecular target: T3, JAK3 (Homo sapiens, UniProt P52333); test: Lance Ultra Kinase Assay, recombinant JAK3; format: biochemical; settings: 5 mM ATP
T3 construct: purchased Carna Biosciences
T3 sequence (P52333 1-1124): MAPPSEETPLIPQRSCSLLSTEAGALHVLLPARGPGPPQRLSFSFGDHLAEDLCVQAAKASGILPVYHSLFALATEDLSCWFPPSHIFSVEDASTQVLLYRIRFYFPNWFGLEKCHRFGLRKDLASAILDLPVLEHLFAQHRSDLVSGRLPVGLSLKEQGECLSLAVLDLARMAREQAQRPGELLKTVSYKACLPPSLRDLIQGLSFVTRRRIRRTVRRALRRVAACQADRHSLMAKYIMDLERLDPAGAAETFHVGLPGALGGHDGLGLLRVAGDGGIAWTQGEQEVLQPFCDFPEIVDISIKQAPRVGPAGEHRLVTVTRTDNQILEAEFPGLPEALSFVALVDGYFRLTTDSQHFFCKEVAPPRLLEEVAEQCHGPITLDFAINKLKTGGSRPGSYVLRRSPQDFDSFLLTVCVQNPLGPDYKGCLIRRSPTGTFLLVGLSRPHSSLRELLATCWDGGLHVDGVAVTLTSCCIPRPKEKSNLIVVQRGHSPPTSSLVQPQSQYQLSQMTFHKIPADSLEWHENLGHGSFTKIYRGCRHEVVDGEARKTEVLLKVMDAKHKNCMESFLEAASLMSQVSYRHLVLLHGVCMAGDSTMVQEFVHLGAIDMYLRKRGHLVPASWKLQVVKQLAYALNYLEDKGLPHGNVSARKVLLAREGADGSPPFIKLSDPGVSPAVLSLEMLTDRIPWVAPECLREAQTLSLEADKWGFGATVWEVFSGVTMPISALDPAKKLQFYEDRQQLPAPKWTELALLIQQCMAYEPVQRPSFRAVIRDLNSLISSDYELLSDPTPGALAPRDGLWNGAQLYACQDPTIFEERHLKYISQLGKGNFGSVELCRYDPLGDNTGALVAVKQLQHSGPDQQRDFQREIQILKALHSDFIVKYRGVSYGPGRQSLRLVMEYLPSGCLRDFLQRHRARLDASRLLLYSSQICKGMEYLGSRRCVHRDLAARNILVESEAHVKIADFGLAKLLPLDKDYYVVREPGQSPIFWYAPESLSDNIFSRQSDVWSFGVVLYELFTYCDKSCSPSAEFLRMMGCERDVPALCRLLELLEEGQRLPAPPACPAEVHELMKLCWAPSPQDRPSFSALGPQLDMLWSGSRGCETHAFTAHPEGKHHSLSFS
Experimental: as §1, §2

TYK2 = molecular target: T4, TYK2 (Homo sapiens, UniProt P29597); test: Lance Ultra Kinase Assay, recombinant TYK2; format: biochemical; settings: 5 mM ATP
T4 construct: purchased Carna Biosciences
Experimental: as §1, §2

phosphorylation of STAT6 = test: Cellular p-STAT6 assay, IL-13 stimulated THP-1 cells, flow cytometry; format: cell-based; settings: IL-13 10 ng/ml, read-out: pSTAT6 IC50
Experimental: To detect phosphorylated STAT6 (pSTAT6), THP-1 cells were harvested by centrifugation at 250 g for 5 min and resuspended in assay medium (RPMI1640+10% FBS) to 2×10^5 cells/well. Test compounds were applied to assay plates in serial dilution from 1 μM to 0.3 nM in DMSO. THP-1 cells were incubated with serial diluted compounds for 60 min at room temperature, followed by stimulation of interleukin (IL-13, 10 ng/ml) for 30 min, fixed in Cytofix buffer (BD Biosciences), and permeabilized in 90% methanol on ice. PE anti-pSTAT6 (BD Biosciences) antibodies were stained for 60 min at room temperature before being analyzed by flow cytometry. In the assay the compounds were thus diluted and dose-response curves for inhibition of the signal determine the IC50 for the compounds.

[1] = Metabolic stability in rat hepatocytes; format: in vitro ADME; settings: 1 μM compound, male rat hepatocytes
Experimental: (§3) Rat hepatocytes in male gender and human liver microsome were obtained from commercial vendors (e.g., BioreclamationIVT) and stored at −150° C. prior to use.
For metabolic stability assay with rat heptatocytes, vials of cryopreserved hepatocytes or microsome were removed from storage, ensured that vials remain at cryogenic temperatures. 1 μM of each test compound (in Acetonitrile; 0.01% DMSO) was incubated with 250 μL of hepatocyte cells (1×10^6 cells/ml) in a 96 deep well plate. […] 40 μL of supernatant was diluted to 200 μL with pure water and analyzed using LC-MS/MS.
In vitro hepatocyte clearance was estimated based on determination of elimination half-life (T1/2) of compounds disappearance from their initial concentrations. Peak area ratios of each compound (test or control) to IS was calculated. Ln (% Control) versus Incubation Time (min) curve was plotted, and the slope of a linear fitting line was calculated. Drug elimination rate constant k (min−1), T1/2 (min), and in vitro intrinsic clearance CLint (μL/min/E6) was calculated according to the following equations: k=−slope T1/2=0.693/k CLint=k/Chep Where Chep (cells×μL^−1) is the cell concentration in the incubation system.

[2] = Metabolic stability in human liver microsome; format: in vitro ADME; settings: 1 mg/mL microsomes, NADPH; for microsomal CLint at 1 μM: human, pooled human liver microsomes, pH 7.4, 1 μM compound
Experimental: as §3
For metabolic stability assay with human liver microsome, 1 μM of each test compound was incubated with 1 mg/mL of microsomes (Pooled HLM with 20 mg/ml protein cone) at 37° C. in 250 μL of buffer (100 mM phosphate buffer, pH-7.4) containing 1 mM NADPH solution. […] was quenched with 5 volumes chilled acetonitrile at different time points 0, 0.5, 5, 10, 15, 20 and 30 min in a fresh 96 well plate. The quench plate was centrifuged at 4000 rpm for 15 min. 40 μL of supernatant was diluted to 200 μL with pure water and analyzed using LC-MS/MS. […]

[3] = Homo sapiens, THP-1, THP-1 cells

T4 sequence (P29597 whole entry): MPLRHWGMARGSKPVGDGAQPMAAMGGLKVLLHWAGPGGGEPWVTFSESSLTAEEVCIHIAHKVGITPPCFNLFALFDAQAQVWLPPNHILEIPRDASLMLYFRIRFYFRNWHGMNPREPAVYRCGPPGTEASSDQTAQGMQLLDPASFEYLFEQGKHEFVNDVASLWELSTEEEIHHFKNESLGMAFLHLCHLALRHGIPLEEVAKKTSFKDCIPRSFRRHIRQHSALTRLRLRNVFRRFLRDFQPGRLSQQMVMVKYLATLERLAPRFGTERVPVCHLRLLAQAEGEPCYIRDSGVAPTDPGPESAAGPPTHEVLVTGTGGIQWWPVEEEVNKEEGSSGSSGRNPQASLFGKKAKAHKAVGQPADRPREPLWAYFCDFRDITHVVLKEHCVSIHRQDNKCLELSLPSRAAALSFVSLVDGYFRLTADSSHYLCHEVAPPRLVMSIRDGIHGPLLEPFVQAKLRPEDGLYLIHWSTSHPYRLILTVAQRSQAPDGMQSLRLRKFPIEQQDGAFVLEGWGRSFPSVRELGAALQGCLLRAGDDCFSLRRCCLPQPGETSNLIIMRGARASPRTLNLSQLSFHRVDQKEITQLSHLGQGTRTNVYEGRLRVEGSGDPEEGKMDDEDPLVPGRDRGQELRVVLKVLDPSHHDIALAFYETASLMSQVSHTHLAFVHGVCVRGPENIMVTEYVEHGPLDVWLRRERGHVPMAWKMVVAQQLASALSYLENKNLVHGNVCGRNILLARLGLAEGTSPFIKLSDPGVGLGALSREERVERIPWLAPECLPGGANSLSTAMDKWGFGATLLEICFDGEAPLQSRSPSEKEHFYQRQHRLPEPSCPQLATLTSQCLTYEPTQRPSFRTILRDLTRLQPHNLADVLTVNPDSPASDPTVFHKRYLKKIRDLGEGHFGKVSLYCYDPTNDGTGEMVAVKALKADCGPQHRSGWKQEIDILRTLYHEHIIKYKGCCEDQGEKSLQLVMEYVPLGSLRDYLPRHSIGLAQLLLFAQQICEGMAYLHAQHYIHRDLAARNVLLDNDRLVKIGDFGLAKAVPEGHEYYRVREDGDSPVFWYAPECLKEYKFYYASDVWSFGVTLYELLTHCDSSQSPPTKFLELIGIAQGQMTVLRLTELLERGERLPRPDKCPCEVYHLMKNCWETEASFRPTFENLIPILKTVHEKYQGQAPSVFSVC
T1 sequence (P23458 whole entry): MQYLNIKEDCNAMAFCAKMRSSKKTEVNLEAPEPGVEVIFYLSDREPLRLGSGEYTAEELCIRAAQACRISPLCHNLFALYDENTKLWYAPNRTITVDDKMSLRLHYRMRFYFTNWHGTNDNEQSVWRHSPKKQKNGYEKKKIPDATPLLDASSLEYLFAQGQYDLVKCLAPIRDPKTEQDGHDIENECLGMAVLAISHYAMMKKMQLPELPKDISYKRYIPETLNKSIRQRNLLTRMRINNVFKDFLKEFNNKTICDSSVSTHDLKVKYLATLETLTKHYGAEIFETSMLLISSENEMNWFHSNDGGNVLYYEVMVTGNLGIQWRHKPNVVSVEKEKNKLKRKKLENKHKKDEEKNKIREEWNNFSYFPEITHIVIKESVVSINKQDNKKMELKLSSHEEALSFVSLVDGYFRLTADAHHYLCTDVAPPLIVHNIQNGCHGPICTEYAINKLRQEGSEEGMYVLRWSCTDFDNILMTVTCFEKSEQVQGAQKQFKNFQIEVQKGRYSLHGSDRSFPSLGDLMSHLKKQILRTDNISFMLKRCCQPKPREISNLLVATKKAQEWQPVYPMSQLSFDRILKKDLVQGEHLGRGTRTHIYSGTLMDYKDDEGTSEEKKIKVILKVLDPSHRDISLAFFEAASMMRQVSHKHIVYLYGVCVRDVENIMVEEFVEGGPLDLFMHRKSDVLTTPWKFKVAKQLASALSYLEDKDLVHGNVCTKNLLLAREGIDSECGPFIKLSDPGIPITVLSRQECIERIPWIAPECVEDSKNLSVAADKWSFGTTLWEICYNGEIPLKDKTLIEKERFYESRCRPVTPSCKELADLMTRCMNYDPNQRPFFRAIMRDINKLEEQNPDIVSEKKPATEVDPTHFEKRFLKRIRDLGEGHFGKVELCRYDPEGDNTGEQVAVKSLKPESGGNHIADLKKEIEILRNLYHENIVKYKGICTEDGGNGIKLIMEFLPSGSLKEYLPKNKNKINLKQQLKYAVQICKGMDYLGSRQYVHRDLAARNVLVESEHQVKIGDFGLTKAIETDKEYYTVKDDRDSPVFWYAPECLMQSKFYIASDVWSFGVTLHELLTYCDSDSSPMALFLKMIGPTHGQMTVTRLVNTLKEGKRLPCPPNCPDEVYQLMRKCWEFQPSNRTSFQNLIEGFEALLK
T2 sequence (O60674 whole entry): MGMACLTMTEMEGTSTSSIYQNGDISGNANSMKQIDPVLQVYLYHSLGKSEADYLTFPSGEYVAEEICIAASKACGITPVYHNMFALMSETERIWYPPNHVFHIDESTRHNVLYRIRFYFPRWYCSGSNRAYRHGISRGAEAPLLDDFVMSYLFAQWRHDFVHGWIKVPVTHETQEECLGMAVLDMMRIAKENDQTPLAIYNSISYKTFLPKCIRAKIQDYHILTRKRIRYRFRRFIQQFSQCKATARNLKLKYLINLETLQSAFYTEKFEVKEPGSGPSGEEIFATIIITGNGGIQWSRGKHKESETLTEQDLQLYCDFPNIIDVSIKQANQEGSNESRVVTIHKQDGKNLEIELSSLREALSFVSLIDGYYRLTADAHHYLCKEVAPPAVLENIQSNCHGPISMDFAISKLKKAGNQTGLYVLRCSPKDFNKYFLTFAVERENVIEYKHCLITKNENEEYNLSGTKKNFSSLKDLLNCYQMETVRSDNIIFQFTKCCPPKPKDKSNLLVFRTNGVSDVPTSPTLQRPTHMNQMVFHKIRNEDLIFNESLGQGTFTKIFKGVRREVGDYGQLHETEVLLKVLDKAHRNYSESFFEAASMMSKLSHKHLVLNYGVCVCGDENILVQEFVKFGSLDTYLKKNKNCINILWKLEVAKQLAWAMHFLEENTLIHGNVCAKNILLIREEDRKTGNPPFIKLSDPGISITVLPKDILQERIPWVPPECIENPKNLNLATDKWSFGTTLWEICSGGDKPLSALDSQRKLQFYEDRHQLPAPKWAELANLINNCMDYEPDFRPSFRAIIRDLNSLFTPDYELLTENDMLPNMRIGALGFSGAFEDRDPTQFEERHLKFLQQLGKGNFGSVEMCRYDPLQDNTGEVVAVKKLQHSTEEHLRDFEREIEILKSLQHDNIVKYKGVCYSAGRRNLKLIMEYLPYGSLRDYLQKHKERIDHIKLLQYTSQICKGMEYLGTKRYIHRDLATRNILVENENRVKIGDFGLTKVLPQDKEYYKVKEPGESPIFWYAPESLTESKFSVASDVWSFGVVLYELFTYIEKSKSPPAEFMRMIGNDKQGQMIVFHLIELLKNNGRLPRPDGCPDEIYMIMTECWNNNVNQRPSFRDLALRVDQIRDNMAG

Row | IC50 (JAK1) [nM] | IC50 (JAK2) [nM] | IC50 (JAK3) [nM] | IC50 (TYK2) [nM] | IC50 (phosphorylation of STAT6; [3]) [nM] | Rat Hepatocyte CLint [1] [μL/min/10^6 cells] | microsomal CLint at 1 μM [2] [µL/min/mg] | IC50 (phosphorylation of STAT6; THP-1 cells) [nM] | Human liver microsome CLint ([2]; 1 μM compound) [µL/min/mg] | SMILES
1 | 0.18 | 35 | 6770 | 609 | 20.6 | 153.6 | 19.5 |  |  | COC[C@H](C(=O)Nc1cccc2c(-c3nc(Nc4cnn(-c5cccc(CO)c5)c4)ncc3F)c[nH]c12)N1CCN(C)CC1 [Example 67, (R)-N-(3-(5-fluoro-2-((1-(3-(hydroxymethyl)phenyl)-1H-pyrazol-4-yl)amino)pyrimidin-4-yl)-1H-indol-7-yl)-3-methoxy-2-(4-methylpiperazin-1-yl)propanamide]
2 | 0.16 | 44 | > 10000 | 922 | 16 | 24.0 | > 300 |  |  | COC[C@H](C(=O)Nc1cccc2c(-c3nc(Nc4cnc(C(=O)OC)c(C)c4)ncc3F)c[nH]c12)N1CCN(C)CC1 [Example 57, methyl (R)-5-((5-fluoro-4-(7-(3-methoxy-2-(4-methylpiperazin-1-yl)propanamido)-1H-indol-3-yl)pyrimidin-2-yl)amino)-3-methylpicolinate]
3 | 0.13 | 85 | > 10000 | 644 | 4 | 68.8 | 4.9 |  |  | COC[C@H](C(=O)Nc1cccc2c(-c3nc(Nc4ccc(CO)nc4)ncc3F)c[nH]c12)N1CCN(C)CC1 [Example 1, (R)-N-(3-(5-fluoro-2-((6-(hydroxymethyl)pyridin-3-yl)amino)pyrimidin-4-yl)-1H-indol-7-yl)-3-methoxy-2-(4-methylpiperazin-1-yl)propanamide]
4 | 0.33 | 88 | 8950 | 1390 | 7.2 | 5.5 | 83.1 |  |  | COC[C@H](C(=O)Nc1cccc2c(-c3nc(Nc4ccc5cn[nH]c5c4)ncc3F)c[nH]c12)N1CCN(C)CC1 [Example 13, (R)-N-(3-(2-((1H-indazol-6-yl)amino)-5-fluoropyrimidin-4-yl)-1H-indol-7-yl)-3-methoxy-2-(4-methylpiperazin-1-yl)propanamide]
5 | 0.15 | 95 | > 10000 | 1180 | 10.3 | 4.4 | 13.5 |  |  | COC[C@H](C(=O)Nc1cccc2c(-c3nc(Nc4cnn(C5CCOC5)c4)ncc3F)c[nH]c12)N1CCN(C)CC1 (single isomer, unassigned; isomer 1) [Example 30]
6 | 0.26 | 81 | > 10000 | 1830 | 5.1 | >300 | 14.4 |  |  | COC[C@H](C(=O)Nc1cccc2c(-c3nc(Nc4ccnc(C(=O)OC)c4)ncc3F)c[nH]c12)N1CCN(C)CC1 [Example 4, Methyl-(R)-4-((5-fluoro-4-(7-(3-methoxy-2-(4-methylpiperazin-1-yl)propanamido)-1H-indol-3-yl)pyrimidin-2-yl)amino)picolinate]
7 | 0.35 | 12 | > 10000 | 545 | 20.3 | 12.7 | 25 |  |  | COC[C@H](C(=O)Nc1cccc2c(-c3nc(Nc4cnc(CCO)c(OC)c4)ncc3F)c[nH]c12)N1CCN(C)CC1 [Example 66, (R)-N-(3-(5-fluoro-2-((6-(2-hydroxyethyl)-5-methoxypyridin-3-yl)amino)pyrimidin-4-yl)-1H-indol-7-yl)-3-methoxy-2-(4-methylpiperazin-1-yl)propanamide]
8 | 0.29 | 491 | > 10000 | 4610 | 11.5 | >300 | > 300 |  |  | CCOC(=O)c1ccc(Nc2ncc(F)c(-c3c[nH]c4c(NC(=O)[C@@H](COC)N5CCN(C)CC5)cccc34)n2)cn1 [Example 36, ethyl (R)-5-((5-fluoro-4-(7-(3-methoxy-2-(4-methylpiperazin-1-yl)propanamido)-1H-indol-3-yl)pyrimidin-2-yl)amino)picolinate]
9 | 0.14 | 110 | > 10000 | 2170 |  | 6.8 |  | 11.1 | 11.1 | COC[C@H](C(=O)Nc1cccc2c(-c3nc(Nc4cnn(C5CCOC5)c4)ncc3F)c[nH]c12)N1CCN(C)CC1 (single isomer, unassigned; isomer 2) [Example 33]
10 | 0.65 | 135 | > 10000 | 2400 | 7.9 |  |  |  |  | CNCCOc1ccc(Nc2ncc(F)c(-c3c[nH]c4c(NC(=O)[C@@H](COC)N5CCN(C)CC5)cccc34)n2)cn1 [Example 20, (R)-N-(3-(5-fluoro-2-((6-(2-(methylamino)ethoxy)pyridin-3-yl)amino)pyrimidin-4-yl)-1H-indol-7-yl)-3-methoxy-2-(4-methylpiperazin-1-yl)propanamide]
11 | 0.07 | 100 | > 10000 | 1260 | 9.1 |  |  |  |  | COC[C@H](C(=O)Nc1cccc2c(-c3nc(Nc4ccc5scnc5c4)ncc3F)c[nH]c12)N1CCN(C)CC1 [Example 26, (R)-N-(3-(2-(benzo[d]thiazol-5-ylamino)-5-fluoropyrimidin-4-yl)-1H-indol-7-yl)-3-methoxy-2-(4-methylpiperazin-1-yl)propanamide]
